# Patent US11725012B2, “Imidazo[1,5-a]pyrazine derivatives as PI3K δ inhibitors” (priority 2016, dated 2023)
# Where two headings read alike, the source gives them in different places.
# Tests used:
# [1] = molecular target: recombinant PI3K (p110δ/p85α) (Homo sapiens, UniProt O00329); test: PI3Kδ ADP-Glo kinase assay; assay type: biochemical
# In short: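 ADP-Glo luminescence with recombinant p110δ/p85α and lipid kinase substrate. Compound serial dilutions preincubated 0.5 hr, ATP added, reaction 1 hr at room temperature, then ATP depletion and detection steps. IC50 from a four-parameter logistic fit of residual activity.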
# [2] = molecular target: recombinant PI3K (p110α/p85α) (Homo sapiens, UniProt P42336); test: PI3Kα ADP-Glo kinase assay; assay type: biochemical
# Sequence of recombinant PI3K (p110α/p85α) (P42336 whole entry): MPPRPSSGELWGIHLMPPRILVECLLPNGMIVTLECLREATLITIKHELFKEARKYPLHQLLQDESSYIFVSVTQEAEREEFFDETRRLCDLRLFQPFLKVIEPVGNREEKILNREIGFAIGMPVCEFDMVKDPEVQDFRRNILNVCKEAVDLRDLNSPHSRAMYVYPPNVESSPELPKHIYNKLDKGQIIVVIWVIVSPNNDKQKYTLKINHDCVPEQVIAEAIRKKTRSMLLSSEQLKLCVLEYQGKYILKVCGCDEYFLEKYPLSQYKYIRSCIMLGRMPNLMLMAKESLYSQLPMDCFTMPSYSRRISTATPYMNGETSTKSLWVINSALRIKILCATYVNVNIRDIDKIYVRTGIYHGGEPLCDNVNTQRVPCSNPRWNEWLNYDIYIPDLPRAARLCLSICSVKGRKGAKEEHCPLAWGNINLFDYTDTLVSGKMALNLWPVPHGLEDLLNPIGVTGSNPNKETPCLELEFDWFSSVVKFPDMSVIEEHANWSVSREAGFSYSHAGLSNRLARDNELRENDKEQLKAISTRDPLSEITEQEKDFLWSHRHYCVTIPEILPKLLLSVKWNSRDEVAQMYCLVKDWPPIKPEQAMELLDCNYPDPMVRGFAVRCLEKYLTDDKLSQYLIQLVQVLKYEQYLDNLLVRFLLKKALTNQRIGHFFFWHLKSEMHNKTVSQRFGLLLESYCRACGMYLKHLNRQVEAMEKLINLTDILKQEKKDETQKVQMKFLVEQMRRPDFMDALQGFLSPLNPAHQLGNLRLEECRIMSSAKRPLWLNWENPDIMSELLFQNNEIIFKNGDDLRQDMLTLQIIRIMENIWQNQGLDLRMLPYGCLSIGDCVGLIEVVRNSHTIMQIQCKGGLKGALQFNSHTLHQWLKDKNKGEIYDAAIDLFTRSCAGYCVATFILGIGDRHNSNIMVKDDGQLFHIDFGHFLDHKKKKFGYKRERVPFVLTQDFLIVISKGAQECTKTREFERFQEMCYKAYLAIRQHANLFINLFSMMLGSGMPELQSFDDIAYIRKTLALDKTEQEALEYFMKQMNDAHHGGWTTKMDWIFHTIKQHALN
# Sequence of recombinant PI3K (p110α/p85α) (P27986 whole entry partner): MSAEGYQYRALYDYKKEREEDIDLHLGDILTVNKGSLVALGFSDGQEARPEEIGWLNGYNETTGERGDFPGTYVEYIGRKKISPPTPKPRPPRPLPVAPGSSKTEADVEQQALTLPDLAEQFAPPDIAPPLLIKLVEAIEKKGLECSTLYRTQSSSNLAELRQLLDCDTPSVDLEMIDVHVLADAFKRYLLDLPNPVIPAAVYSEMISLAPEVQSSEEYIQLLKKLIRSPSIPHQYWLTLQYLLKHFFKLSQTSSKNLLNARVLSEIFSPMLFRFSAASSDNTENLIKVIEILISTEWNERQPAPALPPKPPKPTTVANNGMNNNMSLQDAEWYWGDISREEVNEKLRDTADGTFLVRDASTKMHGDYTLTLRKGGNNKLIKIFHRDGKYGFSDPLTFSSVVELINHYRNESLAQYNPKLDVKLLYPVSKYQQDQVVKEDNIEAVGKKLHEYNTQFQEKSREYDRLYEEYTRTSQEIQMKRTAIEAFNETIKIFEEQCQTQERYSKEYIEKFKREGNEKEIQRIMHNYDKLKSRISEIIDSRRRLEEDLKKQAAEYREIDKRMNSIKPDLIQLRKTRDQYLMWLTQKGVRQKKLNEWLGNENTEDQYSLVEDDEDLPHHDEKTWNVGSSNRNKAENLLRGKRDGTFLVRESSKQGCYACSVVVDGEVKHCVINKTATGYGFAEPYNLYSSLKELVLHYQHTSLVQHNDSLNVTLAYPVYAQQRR
# PI3K (p110β/p85α) = PI3K (p110β/p85α) (Homo sapiens, UniProt P42338); test: PI3Kβ ADP-Glo kinase assay; assay type: biochemical
# Sequence of PI3K (p110β/p85α) (P42338 whole entry): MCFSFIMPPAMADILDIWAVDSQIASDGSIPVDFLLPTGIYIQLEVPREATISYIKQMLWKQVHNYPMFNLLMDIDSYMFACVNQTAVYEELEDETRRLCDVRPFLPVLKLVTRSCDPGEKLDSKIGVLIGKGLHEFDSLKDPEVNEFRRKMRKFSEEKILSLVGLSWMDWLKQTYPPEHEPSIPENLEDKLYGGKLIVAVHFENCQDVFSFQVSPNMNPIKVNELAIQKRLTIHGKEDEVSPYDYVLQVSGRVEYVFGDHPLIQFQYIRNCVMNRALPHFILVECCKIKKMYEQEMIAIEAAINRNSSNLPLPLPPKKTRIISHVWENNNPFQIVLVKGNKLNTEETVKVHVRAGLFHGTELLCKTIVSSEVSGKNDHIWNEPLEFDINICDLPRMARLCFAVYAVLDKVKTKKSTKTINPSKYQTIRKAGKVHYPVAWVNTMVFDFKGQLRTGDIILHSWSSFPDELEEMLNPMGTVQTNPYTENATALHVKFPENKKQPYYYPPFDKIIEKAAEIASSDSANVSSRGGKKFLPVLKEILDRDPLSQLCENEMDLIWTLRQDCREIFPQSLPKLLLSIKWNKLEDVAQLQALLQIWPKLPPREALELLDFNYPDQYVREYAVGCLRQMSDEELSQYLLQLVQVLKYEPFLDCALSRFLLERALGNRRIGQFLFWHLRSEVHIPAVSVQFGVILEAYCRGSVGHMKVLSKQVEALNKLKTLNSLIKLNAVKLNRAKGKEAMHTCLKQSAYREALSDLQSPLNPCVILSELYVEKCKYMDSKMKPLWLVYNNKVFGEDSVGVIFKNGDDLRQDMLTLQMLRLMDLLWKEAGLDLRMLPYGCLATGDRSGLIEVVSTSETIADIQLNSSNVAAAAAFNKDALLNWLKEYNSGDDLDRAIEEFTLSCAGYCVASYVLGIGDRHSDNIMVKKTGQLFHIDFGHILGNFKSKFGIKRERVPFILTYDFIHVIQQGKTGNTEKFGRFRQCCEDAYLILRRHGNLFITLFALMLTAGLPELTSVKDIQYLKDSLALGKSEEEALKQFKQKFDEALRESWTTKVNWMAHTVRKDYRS
# Sequence of PI3K (p110β/p85α) (P27986 whole entry partner): as the sequence (P27986 whole entry partner) above
# PI3K (p110γ) = PI3K (p110γ) (Homo sapiens, UniProt P48736); test: PI3Kγ ADP-Glo kinase assay; assay type: biochemical
# Sequence of PI3K (p110γ) (P48736 whole entry): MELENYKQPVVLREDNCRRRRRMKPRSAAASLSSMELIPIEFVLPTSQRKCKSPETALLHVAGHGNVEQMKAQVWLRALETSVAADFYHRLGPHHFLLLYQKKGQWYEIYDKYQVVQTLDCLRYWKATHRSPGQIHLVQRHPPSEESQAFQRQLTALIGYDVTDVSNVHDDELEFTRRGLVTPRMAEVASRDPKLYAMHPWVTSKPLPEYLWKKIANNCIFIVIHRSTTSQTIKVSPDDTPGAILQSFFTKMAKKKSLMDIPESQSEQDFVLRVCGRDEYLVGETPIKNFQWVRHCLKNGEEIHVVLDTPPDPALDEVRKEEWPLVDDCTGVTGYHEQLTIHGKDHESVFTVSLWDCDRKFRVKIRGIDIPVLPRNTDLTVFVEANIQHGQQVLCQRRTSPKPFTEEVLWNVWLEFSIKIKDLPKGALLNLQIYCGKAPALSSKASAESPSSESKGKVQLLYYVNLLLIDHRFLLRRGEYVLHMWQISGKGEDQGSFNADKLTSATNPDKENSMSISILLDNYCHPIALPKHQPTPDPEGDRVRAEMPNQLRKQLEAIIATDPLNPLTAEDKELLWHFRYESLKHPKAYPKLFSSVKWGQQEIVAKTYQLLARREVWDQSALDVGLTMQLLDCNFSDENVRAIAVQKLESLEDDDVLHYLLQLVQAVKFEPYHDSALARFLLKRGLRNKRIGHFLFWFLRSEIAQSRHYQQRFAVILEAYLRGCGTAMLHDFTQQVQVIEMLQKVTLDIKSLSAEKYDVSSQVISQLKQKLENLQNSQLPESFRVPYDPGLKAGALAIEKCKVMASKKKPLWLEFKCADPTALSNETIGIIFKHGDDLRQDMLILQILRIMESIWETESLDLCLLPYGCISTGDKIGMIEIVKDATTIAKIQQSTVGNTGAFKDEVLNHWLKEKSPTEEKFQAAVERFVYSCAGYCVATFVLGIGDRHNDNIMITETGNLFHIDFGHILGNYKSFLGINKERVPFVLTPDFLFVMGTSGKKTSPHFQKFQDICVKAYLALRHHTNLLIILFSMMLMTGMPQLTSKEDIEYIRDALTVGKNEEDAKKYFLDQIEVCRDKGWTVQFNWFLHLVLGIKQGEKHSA
# [3] = Pharmacokinetic properties in Sprague-Dawley rats after IV and PO administration; assay type: in vivo; conditions: male, plasma, rat
# Experimental: III. Pharmacokinetic Properties of Compounds in Sprague-Dawley Rats after Intravenous (IV) and Oral Administrations (PO)
# Dose Formulation Preparation The injection dosing solution was prepared as follows: 1.0 mg of a test compound was weighted and dissolved in 0.32 mL of dimenthyl acetamide (DMA). The solution was then further diluted by 0.36 mL of ethanol and 0.32 mL of propylene glycol. The final concentration of the test compound was 1.0 mg·mL^−1.
# The oral dosing solution was prepared as follows: 5.0 mg of a test compound was weighed and dispersed in […] of 0.5% methyl cellulose (MC). The final concentration of the test compound is 1 mg·mL^−1.
# The animals were housed in solid bottom polypropylene cages with sterilized bedding and receive sterilized diet and sterilized water. The room was controlled and monitored for humidity (targeted mean range 40% to 70%) and temperature (targeted mean range 18° C. to 26° C.) with 10 to 20 air changes/hour. The light cycle was maintained at 12-h light and 12-h dark, Only animals that appeared to be healthy were selected for this study based on overall health, body weight, or other relevant information.
# The male Sprague-Dawley rats were fasted overnight with free access to drinking water prior to treatment. On day 1, the animals were weighed and actual dose volume for each animal was calculated using the formula below: Dose Volume (mL)=[Nominal Dose (mg·kg^−1)/Dose Concentration (mg·mL^−1)]×Animal Body Weight (kg) (1)
# Three rats were given a single IV dose of 1 mg·kg^−1 via tail vein injection and other three rats were given a single oral dose of 5 mg·kg^−1. The dosing solutions were freshly prepared prior to dose administration. The actual body weights and actual volume injected were recorded accordingly. Four hours after dosing, the rats were allowed to intake food.
# Blood samples ([…]) were collected at different times from the jugular vein catheter into EDTA-K2 coated tubes, Whole blood was processed by centrifugation at 3000 g for 10 min. Plasma samples were collected and kept at −80° C. freezer prior to analysis. The blood sampling time was recorded accordingly.
# The dose samples of IV and PO were diluted with MeOH:H2O (4:1, v/v) to achieve the concentration of 2 μg·mL^−1, respectively. Then, 2.5 μL of the diluted samples were added with 47.5 μL blank plasma, and then were handled as the plasma sample procedure. An aliquot of 10 μL of the mixture was injected into the LC-MS/MS system.
# [4] = read-out: PI3Kδ Enzyme activity IC50
# [5] = read-out: PI3Kα Enzyme activity IC50
# [6] = read-out: PI3Kβ Enzyme activity IC50
# [7] = read-out: PI3Kγ Enzyme activity IC50
# Sequence of recombinant PI3K (p110δ/p85α) (O00329 whole entry): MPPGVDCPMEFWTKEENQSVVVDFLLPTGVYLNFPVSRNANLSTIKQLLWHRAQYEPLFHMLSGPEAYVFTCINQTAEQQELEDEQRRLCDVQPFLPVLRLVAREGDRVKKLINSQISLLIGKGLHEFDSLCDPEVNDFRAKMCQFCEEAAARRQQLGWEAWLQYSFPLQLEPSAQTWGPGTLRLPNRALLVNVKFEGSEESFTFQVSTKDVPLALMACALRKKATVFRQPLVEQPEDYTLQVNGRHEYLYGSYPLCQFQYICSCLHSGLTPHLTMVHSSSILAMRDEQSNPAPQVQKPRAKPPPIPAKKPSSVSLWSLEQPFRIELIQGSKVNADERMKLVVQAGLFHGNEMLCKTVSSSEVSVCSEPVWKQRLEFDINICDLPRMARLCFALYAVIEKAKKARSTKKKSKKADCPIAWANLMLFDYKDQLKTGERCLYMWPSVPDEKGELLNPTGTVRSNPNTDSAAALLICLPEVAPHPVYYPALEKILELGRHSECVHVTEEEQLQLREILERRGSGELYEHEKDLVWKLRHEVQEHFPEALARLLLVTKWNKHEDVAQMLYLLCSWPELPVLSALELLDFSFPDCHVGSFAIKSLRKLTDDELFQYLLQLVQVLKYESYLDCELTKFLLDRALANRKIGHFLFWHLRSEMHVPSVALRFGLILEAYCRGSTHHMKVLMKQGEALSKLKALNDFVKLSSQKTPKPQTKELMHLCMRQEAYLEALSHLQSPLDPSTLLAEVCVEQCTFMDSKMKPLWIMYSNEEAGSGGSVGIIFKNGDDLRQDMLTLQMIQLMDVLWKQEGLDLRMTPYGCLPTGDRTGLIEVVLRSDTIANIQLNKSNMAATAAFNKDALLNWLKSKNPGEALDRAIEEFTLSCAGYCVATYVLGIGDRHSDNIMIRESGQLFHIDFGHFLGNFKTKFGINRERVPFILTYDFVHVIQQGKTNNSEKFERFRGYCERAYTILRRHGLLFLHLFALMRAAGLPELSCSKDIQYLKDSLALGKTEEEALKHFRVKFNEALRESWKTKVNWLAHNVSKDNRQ
# Sequence of recombinant PI3K (p110δ/p85α) (P27986 whole entry partner): as the sequence (P27986 whole entry partner) above
SMILES,"IC50 [1, 4] [nM]","IC50 [2, 5] [nM]",IC50 (PI3K (p110β/p85α); [6]) [nM],IC50 (PI3K (p110γ); [7]) [nM],further results
"CC(C)Oc1c(C(C)c2nc(Cl)c3c(N)nccn23)cc(Cl)c(F)c1C1CNC(=O)C1 (single isomer, unassigned) [Compound 48B, 4-(3-(1-(8-amino-1-chloroimidazo[1,5-a]pyrazin-3-yl)ethyl)-5-chloro-6-fluoro-2-isopropoxyphenyl)pyrrolidin-2-one]",–,–,–,–,"IC50 ([1]; PI3Kδ Enzyme activity IC50): 0.31 nM; IC50 ([2]; PI3Kα Enzyme activity IC50): 1300 nM; IC50 (PI3K (p110β/p85α); PI3Kβ Enzyme activity IC50): 1200 nM; IC50 (PI3K (p110γ); PI3Kγ Enzyme activity IC50): 630 nM; AUC(0-inf) ([3]; 1 mg/kg, IV (1 mpk)): 425 ng·h/mL; clearance ([3]; 1 mg/kg, IV (1 mpk)): 39.2 mL/min/kg; half-life ([3]; 1 mg/kg, IV (1 mpk)): 1.4 h; Vd ([3]; 1 mg/kg, IV (1 mpk), read-out: VdSS): 4.3 L/kg; AUC(0-inf) ([3]; 5 mg/kg, PO (5 mpk)): 1000 ng·h/mL; Cmax ([3]; 5 mg/kg, PO (5 mpk)): 254 ng/mL; Tmax ([3]; 5 mg/kg, PO (5 mpk)): 0.8 h; bioavailability ([3]; 5 mg/kg, PO (5 mpk)): 47%; half-life ([3]; 5 mg/kg, PO (5 mpk)): 2.1 h"
Cc1nc([C@@H](C)c2cc(Cl)c(F)c(-c3ccc(C(N)=NO)nc3)c2OC(C)C)n2ccnc(N)c12 [Compound 60],1.6,4300,4200,2800,–
"Cc1nc([C@@H](C)c2cc(Cl)c(F)c(-c3ccc(C(=O)N4CCC(O)CC4)nc3)c2OC(C)C)n2ccnc(N)c12 [Compound 61, (S)-(5-(3-(1-(8-amino-1-methylimidazo[1,5-a]pyrazin-3-yl)ethyl)-5-chloro-6-fluoro-2-isopropoxyphenyl)pyridin-2-yl)(4-hydroxypiperidin-1-yl)methanone]",0.58,2900,6100,3800,–
"Cc1nc([C@@H](C)c2cc(Cl)c(F)c(-c3ccc(C(=O)NCCO)nc3)c2OC(C)C)n2ccnc(N)c12 [Compound 62, (S)-5-(3-(1-(8-amino-1-methylimidazo[1,5-a]pyrazin-3-yl)ethyl)-5-chloro-6-fluoro-2-isopropoxyphenyl)-N-(2-hydroxyethyl)picolinamide]",0.82,5200,3600,2600,–
"Cc1nc([C@@H](C)c2cc(Cl)c(F)c(-c3ccc(C(=O)N4CC(O)C4)nc3)c2OC(C)C)n2ccnc(N)c12 [Compound 63, (S)-(5-(3-(1-(8-amino-1-methylimidazo[1,5-a]pyrazin-3-yl)ethyl)-5-chloro-6-fluoro-2-isopropoxyphenyl)pyridin-2-yl)(3-hydroxyazetidine-1-yl)methanone]",0.56,2600,2300,2400,–
"Cc1nc([C@@H](C)c2cc(Cl)c(F)c(-c3ccc(C(=O)N4CC[C@@H](O)C4)nc3)c2OC(C)C)n2ccnc(N)c12 [Compound 64, (5-(3-((S)-1-(8-amino-1-methylimidazo[1,5-a]pyrazin-3-yl)ethyl)-5-chloro-6-fluoro-2-isopropoxyphenyl)pyridin-2-yl)((R)-3-hydroxypyrrolidin-1-yl)methanone]",0.37,1400,1600,2100,–
"Cc1nc([C@@H](C)c2cc(Cl)c(F)c(-c3ccc(C(=O)N4CC(C(=O)O)C4)nc3)c2OC(C)C)n2ccnc(N)c12 [Compound 65, (S)-1-(5-(3-(1-(8-amino-1-methylimidazo[1,5-a]pyrazin-3-yl)ethyl)-5-chloro-6-fluoro-2-isopropoxyphenyl)picolinoyl)azetidine-3-carboxylic Acid]",0.71,5400,1200,1600,–
"Cc1nc([C@@H](C)c2cc(Cl)c(F)c(-c3ccc(C(=O)NC4(CO)CC4)nc3)c2OC(C)C)n2ccnc(N)c12 [Compound 66, (S)-5-(3-(1-(8-amino-1-methylimidazo[1,5-a]pyrazin-3-yl)ethyl)-5-chloro-6-fluoro-2-isopropoxyphenyl)-N-(1-(hydroxymethyl)cyclopropyl)picolinamide]",0.72,4100,3400,2600,–
"Cc1nc([C@@H](C)c2cc(Cl)c(F)c(-c3ccc(C(=O)N4CCC[C@H]4C(=O)O)nc3)c2OC(C)C)n2ccnc(N)c12 [Compound 67, (5-(3-((S)-1-(8-amino-1-methylimidazo[1,5-a]pyrazin-3-yl)ethyl)-5-chloro-6-fluoro-2-isopropoxyphenyl)picolinoyl)-L-proline]",0.47,5200,460,1200,–
"Cc1nc([C@@H](C)c2cc(Cl)c(F)c(-c3ccc(C(=O)NC4(C(=O)O)CC4)nc3)c2OC(C)C)n2ccnc(N)c12 [Compound 68, (S)-1-(5-(3-(1-(8-amino-1-methylimidazo[1,5-a]pyrazin-3-yl)ethyl)-5-chloro-6-fluoro-2-isopropoxyphenyl)picolinamido)cyclopropane-1-carboxylic Acid]",0.33,3400,400,960,–
"Cc1nc([C@@H](C)c2cc(Cl)c(F)c(-c3ccc(C(=O)N4CCC[C@@H]4C(=O)O)nc3)c2OC(C)C)n2ccnc(N)c12 [Compound 69, (5-(3-((S)-1-(8-amino-1-methylimidazo[1,5-a]pyrazin-3-yl)ethyl)-5-chloro-6-fluoro-2-isopropoxyphenyl)picolinoyl)-D-proline]",0.71,7100,610,620,–
"Cc1nc([C@@H](C)c2cc(Cl)c(F)c(-c3ccc(C(=O)NC(C)(C)C(=O)O)nc3)c2OC(C)C)n2ccnc(N)c12 [Compound 70, (S)-2-(5-(3-(1-(8-amino-1-methylimidazo[1,5-a]pyrazin-3-yl)ethyl)-5-chloro-6-fluoro-2-isopropoxyphenyl)picolinamido)-2-methylpropanoic Acid]",0.33,4400,540,840,–
Cc1nc([C@@H](C)c2cc(Cl)c(F)c(-c3ccc(C(=O)N4CCC(F)(F)CC4)nc3)c2OC(C)C)n2ccnc(N)c12 [Compound 71],0.96,4700,2700,3200,–
